This is an account of results in article PMC6325219, “Preclinical Characterization of NVR 3-778, a First-in-Class Capsid Assembly Modulator against Hepatitis B Virus” (Antimicrobial Agents and Chemotherapy, 2018).

Marks after values point to notes of the source that are not given here.

For experiment [1], the system named is HBV core protein variant I105T. As to the kind of experiment: microbe, parasite or virus in culture. The source says: (§1) Plasmids containing HBV DNA with rtN236T, rtA181V, rtA181V/N236T, and rtL180M/M204V/N236T were generated using the GT B WT or rtL180M/M204V DNA-containing plasmids and site-directed mutagenesis (Agilent Technologies). A panel of nine different HBV core variants (cW102G, cW102R, cI105V, cI105L, cI105T, cT109S, cT109M, cT109I, and cY118F) was generated, also using the GT B WT DNA-containing plasmid and site-directed mutagenesis. The full-length genome from all plasmids was sequenced to confirm that only the intended nucleotide change(s) was present. Finally, HBV sequences from genotypes A (GenBank accession number AF305422), C (GenBank accession number AB033550), D (GenBank accession number V01460), E (GenBank accession number AB274971), F (GenBank accession number AB036912), G (GenBank accession number AF160501), and H (GenBank accession number AB375159) were gene synthesized as 1.1 times the genome length together with part of the CMV promoter at the 5′ end. The gene-synthesized piece was validated by sequencing and subcloned into the pCMV-HBV plasmid using the restriction sites SalI and NdeI (Genewiz, USA).
(§2) HepG2 cells were seeded in 96-well plates at a density of 20,000 cells/well and allowed to attach overnight at 37°C in 5% CO2. Cells were cotransfected with the HBV plasmids (100 ng/well) and a Gaussia expression plasmid (10 ng/well) (Thermo Scientific) using the Lipofectamine LTX Plus transfection reagent (Life Technologies). Transfection mixtures were removed after overnight incubation, and cells were treated with serially diluted NVR 3-778 at a final dimethyl sulfoxide (DMSO) concentration of 0.5%. After 3 days of incubation with the compound, the supernatants were collected and secreted Gaussia luciferase was measured using a Gaussia Flash luciferase assay kit (Thermo Scientific). Cells were lysed with 0.33% NP-40 (Thermo Scientific), and the cytoplasmic fractions were treated with 2 units of Turbo DNase (Invitrogen) and 10 units of S7 nuclease (Roche) in CutSmart buffer (New England Biolabs) containing 25 µM CaCl2 (G-Biosciences) at 37°C for 60 min, followed by inactivation of the enzymes at 75°C for 15 min. Samples were diluted into lysis buffer (Affymetrix) containing 2.5 µg proteinase K (Affymetrix) at 50°C for 40 min. Intracellular encapsidated HBV DNA was denatured for 30 min at 25°C in 0.2 M NaOH (Sigma) and incubated with HBV DNA probes designed to hybridize to the minus-strand HBV DNA (Affymetrix). The denatured DNA was subsequently detected using a QuantiGene assay kit, according to the branched DNA (bDNA) assay recommended by the manufacturer (Affymetrix).
(§3) To determine percent inhibition, the mean background signal from wells containing only culture medium was subtracted from the signal for all other samples, and percent inhibition at each compound concentration was calculated by normalization to the signals for HepG2.2.15 cells treated with 0.5% DMSO. […] Both CalcuSyn and MacSynergy II (Ann Arbor, MI) software were used to evaluate the effect of compound combinations ([27]). After data analysis at the 95% confidence level, values of synergy or antagonism of <25 µM^2% were defined as insignificant, those between 25 and 50 µM^2% were defined as minor, those between 50 and 100 µM^2% were defined as moderate, and those of >100 µM^2% were defined as strong.

In experiment [2] the test system is HBV core protein variant T109I. Description: microbe, parasite or virus in culture.
Text: as §1, §2, §3

For experiment [3], the system named is HBV GT A. As to the kind of experiment: Transient-transfection antiviral study in HepG2 cells, GT A. It is filed as cell-based. To be noted: Hepatitis B virus, 72 h, 3 days, intracellular encapsidated rcDNA.
Protocol: (§4) Cells were cotransfected with the HBV plasmids (100 ng/well) and a Gaussia expression plasmid (10 ng/well) (Thermo Scientific) using the Lipofectamine LTX Plus transfection reagent (Life Technologies). Transfection mixtures were removed after overnight incubation, and cells were treated with serially diluted NVR 3-778 at a final dimethyl sulfoxide (DMSO) concentration of 0.5%. After 3 days of incubation with the compound, the supernatants were collected and secreted Gaussia luciferase was measured using a Gaussia Flash luciferase assay kit (Thermo Scientific). […] Samples were diluted into lysis buffer (Affymetrix) containing 2.5 µg proteinase K (Affymetrix) at 50°C for 40 min. Intracellular encapsidated HBV DNA was denatured for 30 min at 25°C in 0.2 M NaOH (Sigma) and incubated with HBV DNA probes designed to hybridize to the minus-strand HBV DNA (Affymetrix). The denatured DNA was subsequently detected using a QuantiGene assay kit, according to the branched DNA (bDNA) assay recommended by the manufacturer (Affymetrix).
Experiment [4] relates to HBV core protein variant T109S. Description: Transient-transfection antiviral study in HepG2 cells, core variant T109S. Format: cell-based, hepatitis B virus.
Protocol: as §4
Experiment [5] relates to HBV rtN236T variant. It is filed as cell-based, hepatitis B virus. To be noted: ratio of mean EC50 against variant over WT HBV, HepG2 cells.
Text: as §1, §2, §3

Experiment [6] relates to HBV rtA181V/N236T variant. Format: cell-based, hepatitis B virus. To be noted: ratio of mean EC50 against variant over WT HBV, HepG2 cells.
Text: as §1, §2, §3

For experiment [7], the system named is HBV GT C. As to the kind of experiment: Transient-transfection antiviral study in HepG2 cells, GT C. Format: cell-based. To be noted: Hepatitis B virus, HepG2, 72 h, read-out: EC50 (mean), HBV GT C.
Protocol: as §4
The test system of experiment [8] is HBV GT F. As to the kind of experiment: Transient-transfection antiviral study in HepG2 cells, GT F. It is filed as cell-based. To be noted: Hepatitis B virus, HepG2, 72 h, read-out: EC50 (mean), HBV GT F.
Protocol: as §4
Setting [9] is: ratio of mean EC50 for core variant over wild-type HBV.

Take `O=C(Nc1cc(F)c(F)c(F)c1)c1ccc(F)c(S(=O)(=O)N2CCC(O)CC2)c1` [NVR 3-778]: the 50% effective concentration (EC50) (as a rule, the midpoint of the concentration-response curve) in experiment [1] (Hepatitis B virus, HepG2, read-out: EC50, core variant I105T) came out at 1500 ± 300 nM; in experiment [2] (Hepatitis B virus, HepG2, read-out: EC50, core variant T109I), 150 ± 61 nM; in experiment [3], 380 nM; in experiment [4] (Hepatitis B virus, HepG2, read-out: EC50, core variant T109S), 770 ± 270 nM; in experiment [7], 340 nM; in experiment [8], 560 nM. Moreover, in experiment [1] (setting [9]), the “EC50 FC, I105T” value is on record as 6.5 fold. Moreover, the “EC50 FC, T109I” value in experiment [2] (setting [9]) was 0.65 fold. Also, in experiment [4] (setting [9]), the “EC50 FC, T109S” value amounted to 3.3 fold. The “EC50 fold change, rtN236T” value in experiment [5] is listed as 0.85 ± 0.40^d fold. Besides, in experiment [6], the “EC50 fold change, rtA181V/N236T” value is recorded as 0.85 ± 0.26^d fold.
